In one experiment the test system is SK-Hep1 cell extracts. Nature of the experiment: Specific activity of SK-Hep1 cell extracts for reduction of free Met sulfoxides. Format: biochemical, human. As to conditions: for Specific activity for each Met-O: SK-Hep1, ± standard deviations from 3 independent experiments. How it is done: HPLC analysis of media samples-Cells were plated in 6-well plates at 7.5×10^4 cells/well in 1.5 mL of regular DMEM medium. After 24 hours, cells were washed with PBS and the medium was changed to a modified DMEM containing Met, Met-SO, Met-RO, or Met-RSO (0.1 mM of each amino acid). 90 μL of medium from each well was collected at 0, 24, 48, 72, 96 hours and mixed with 10 μL of 100% TCA. After incubation at 4° C. for 10 minutes and centrifugation at 13,000 rpm for 15 minutes, the supernatant (50 μL) was diluted 10 times with distilled water and prepared for OPA derivatization. OPA derivatization of amino acids and HPLC analysis was performed as described (Sharov, V. S., Ferrington, D. A., Squier, T. C., […]. (1999) FEBS Lett. 455, 247-250) with minor modifications. The derivatization reagent was freshly prepared as a stock solution (40 mg of o-phthalaldehyde, 1 mL of methanol, 50 μL, of 2-mercaptoehanol, 5 mL of 0.1 M Na2B4O7, pH 9.5) at room temperature in a capped amber vial. Sample solutions (2-5 μL) were mixed with the OPA derivatization reagent to 100 μL, final volume. Following a 2 minute reaction at room temperature, the mixture was fractionated on a Zorbax Eclipse XDB-C8 column (4.6×150 mm). Changes in Met levels in the fRMsr activity assay were similarly quantified. […] Activity assays of fRMsr-Reaction mixture (40 μL) included 50 mM DTT, 1 mM substrate (Met-RO or Met-SO), and purified enzyme or cell lysate prepared by treatment with […] cell lysis reagent (Sigma). 20 μL of the reaction mixture was mixed with 2 μL of TCA and subjected to OPA derivatization as described above and then injected onto the column to measure endogenous Met level in the samples. An additional 20 μL from the same original reaction mixture were incubated at 37° C. for 30 minutes and then subjected to OPA derivatization by the same procedure using TCA. After derivatization of the sample (2-5 μL) by adding OPA solution to 100 μL as a final volume, 50 μL of the mixture were subjected to an HPLC separation as described above.

For experiment [1], the system named is MsrA-knockdown SK-Hep1 cells. The experiment can be described thus: Growth of MsrA-knockdown SK-Hep1 cells on Met and Met sulfoxide media. Format: cell-based, human. As to conditions: 0.1 mM, 96 hours. The method, then: Proliferation Assay—Cell growth was quantified using colorimetric MTS assay (Promega). Cells in regular DMEM medium were plated in 96-well plates at 5×10^3 cells/well, washed with PBS, and specialized DMEM media were added that contained Met, Met-SO, Met-RO, or Met-RSO 24 hours after plating. To assay for cell proliferation, a tetrazolium compound [3-(4,5-dimethylthiazol-2-yl)-5-(3-carboxymethoxyphenyl)-2-(4-sulfophenyl)-2H-tetrazolium, inner salt; MTS] and an electron coupling reagent (phenazine methosulfate; PMS) were mixed according to the manufacturer's protocol and then 20 μL of the mixture were added to 100 μL of phenol red-excluded media that further replaced cell culture media. After 90 minutes of incubation at 37° C. in the atmosphere of 5% CO2, cell proliferation was measured at indicated time periods from 0 to 96 hours at 450 nm in a plate reader. Direct counting of viable cells using 0.2% trypan blue was done in 6-well plates. Knockdown of MsrA in SK-Hep1 cells by siRNA—Double stranded siRNAs (Dharmacon) for targeting human MsrA mRNA were used to knockdown this gene in SK-Hep1 cells. Cells were transfected with siRNA by using DharmaFECT™ Transfection Reagent (Dharmacon) according to the manufacturer's protocol. Proliferation of these cells was assayed 60 hours after transfection in comparison with control transfected cells.

Another experiment relates to selenoproteins. Nature of the experiment: 75Se metabolic labeling of SK-Hep1 cells grown on Met and Met sulfoxide media. The conditions noted are these: 0.1 mM of each amino acid. Format: cell-based, human. How it is done:
^75 Se Metabolic labeling—SK-Hep1 cells were plated in 6-well plates at 7.5×10^4 cells/well in 1.5 mL of regular DMEM medium. After 24 hours, cells were washed with PBS and the medium was changed to modified DMEM media containing Met, Met-SO, Met-RO, or Met-RSO (0.1 mM of each amino acid). 0.01 mCi of freshly neutralized [^75Se]selenious acid (specific activity 1,000 Ci/mmol, University of Missouri Research Reactor) was added in each well at 48 hours after changing the medium and cells were incubated at 37° C. for 24 hours in 5% CO2 atmosphere, followed by harvesting the cells. Cell extracts (30 μg of total protein) were electrophoresed on 10% Bis-Tris gels and transferred onto PVDF membranes (Invitrogen). The ^75Se radioactivity pattern was visualized by using a PhosphorImager (GE Health Care).

The test system of another experiment is CBS. Nature of the experiment: Western blot analysis of CBS in SK-Hep1 cells grown on Met and Met sulfoxide media. Format: cell-based, human. As to conditions: 0.1 mM. How it is done: Analysis of SK-Hep1 and fRMsr-transfected SK-Hep1 cells—SK-Hep1 and fRMsr-transfected SK-Hep1 cells were plated in 6-well plates at 7.5×10^4 cells/well in regular DMEM medium. The medium was changed to Met-free DMEM supplemented with either Met or individual Met sulfoxides at 24 hours after plating. Cells were then collected every 24 hours until 96 hours. Protein concentration was measured by the Bradford assay and the samples were probed by standard immunoblot assays with polyclonal MsrA (kindly provided by Bertrand Friguet), cystathionine beta synthase (CBS) (kindly provided by Ruma Banerjee), and activating transcription factor 3 (ATF3) (Santa Cruz Biotechnology) antibodies.

For the compound `C[S@@+]([O-])CC[C@H](N)C(=O)O` [Met-RO, methionine-R-sulfoxide], in the experiment with SK-Hep1 cell extracts, the “Specific activity for each Met-O” value is “ND* (A signal corresponding to specific activity less than 5 pmol/min/mg is shown as ND (Not Detectable))” and the “Specific activity of SK-Hep1 cell extracts for reduction of free Met sulfoxide” value is “No free Met-RO reductase activity was detected”. For the same compound, the “Growth of MsrA-deficient cells” value in experiment [1] is recorded as “grew neither”. In the experiment with selenoproteins, the “Selenoprotein patterns (75Se labeling)” value is reported as “No difference was observed”. In the experiment on CBS (SK-Hep1 cells), the “Expression of CBS” value is “reduced expression”. Also, the “Expression of CBS” value with CBS (fRMsr-expressing SK-Hep1 cells) is reported as “normal CBS levels”.

Consider `C[S@+]([O-])CC[C@H](N)C(=O)O` [Met-SO, methionine-S-sulfoxide], for which, in the experiment with SK-Hep1 cell extracts, the “Specific activity for each Met-O” value is reported as 38.6 ± 3.6 pmol/min/mg and the “Specific activity of SK-Hep1 cell extracts for reduction of free Met sulfoxide” value is “≈ 38.6 pmol/min/mg protein”. Also, the “Growth of MsrA-deficient cells” value in experiment [1] was “grew neither”. The “Selenoprotein patterns (75Se labeling)” value in the experiment on selenoproteins is reported as “No difference was observed”. The “Expression of CBS” value in the experiment on CBS (SK-Hep1 cells) is on record as “CBS levels were decreased”.

Values taken from US20110178072A1, “STEREOSPECIFICITY OF METHYLSULFINYL REDUCTION” (priority 2008, published 2011).
